Laboratory results: patent US20220146526A1, “METHOD FOR EVALUATING SAMPLE, ANALYSIS METHOD, METHOD FOR DETECTING DEGRADED SAMPLE, MARKER FOR DETECTING DEGRADED BLOOD PLASMA SAMPLE, AND MARKER FOR DETECTING DEGRADED SERUM SAMPLE” (SHIMADZU CORPORATION, priority 2019, published 2022)

What was measured:
Assay type in all cases: physicochemical, human
[1] = GC/MS of serum sample: time from blood collection to centrifugation (Table G); details: blood collection to centrifugation; for Rate of increase or decrease: detection intensity relative to 1 at 15 minutes; for Increase or decrease: detection intensity
Protocol: (§1) After standing, the blood sample was subjected to centrifugation under a condition of room temperature, 3500 rpm, and 5 minutes. […] After centrifugation, the blood-collecting vessel was left to stand at room temperature, and the serum was isolated during this time. Here, in order to investigate how the detection intensity of molecules contained in the sample was affected in cases where the time during which the blood-collecting vessel was left at room temperature was set to 1 hour and 6 hours as compared to that in a case where the time was set to 30 minutes, preparations were performed under the respective conditions of 30 minutes, 1 hour, and 6 hours. The obtained serum sample was frozen and stored. Here, in order to investigate how the detection intensity of molecules contained in the sample was affected in cases where freezing and thawing was performed 4 times, 6 times, and 10 times after freezing as compared to that in a case where freezing and thawing was performed 2 times after freezing, freezing and thawing was performed under the respective conditions of 2, 4, 6, and 10 times.
(§2) Frozen blood plasma samples and serum samples were subjected to GC/MS or LC/MS. In GC/MS, the blood plasma samples and serum samples were subjected to methoxymation and trimethylsilylation and then introduced to GC-MS.
(§3) GC/MS was conducted using GCMS·TQ8040 (Shimadzu Corporation) that was a GC·MS equipped with AOC·20i (Shimadzu Corporation) as an autosampler.
(§4) Column: BPX5 (inner diameter of 0.25 mm, length of 30 m, and film thickness of 0.25 μm) (SGE)
(§5) Column temperature: maintained at 60° C. for 2 minutes, then raised at 15° C./min, and maintained at 330° C. for 3 minutes.
(§6) Inlet temperature: 250° C.
(§7) Carrier gas control mode: constant linear velocity of 39.0 cm/sec
(§8) Sample introduction method: split (split ratio of 30:1) Injection volume: 1 μL
(§9) Ionization method: electron ionization
(§10) Ionization current: 60 μA
(§11) Interface temperature: 280° C.
(§12) Ion source temperature: 200° C.
(§13) Mode: multiple reaction monitoring (MRM)
The rate of increase or decrease in Table G is the value of detection intensity relative to 1 that is the detection intensity in a case where the time from blood collection to centrifugation is set to 15 minutes.

[2] = GC/MS of serum sample: time from centrifugation to isolation (Table H); design: key to Rate of increase or decrease / Rate of increase or decrease (first value, increase): detection intensity relative to 1 at 30 min centrifugation-to-isolation; details: for Rate of increase or decrease: detection intensity relative to 1 at 30 minutes; for Increase or decrease: detection intensity
Protocol: as §1, §2, §3, §4, §5, §6, §7, §8, §9, §10, §11, §12, §13
The rate of increase or decrease in Table H is the value of detection intensity relative to 1 that is the detection intensity in a case where the time from centrifugation to isolation is set to 30 minutes.

[3] = LC/MS of serum sample: number of times of freezing and thawing (Table M); design: key to Rate of increase or decrease: detection intensity relative to 1 at 2 freeze-thaw cycles; details: for Number of times when compound is affected / Increase or decrease: serum sample, LC/MS; for Number of times when compound is affected: detection intensity changed by 30% or more vs 2 times of freezing and thawing; for Increase or decrease: detection intensity vs 2 times of freezing and thawing
Protocol: as §1, §2
Analysis column: Discovery HS F5-3 (inner diameter of 2.1 mm, length of 150 mm, film thickness of 3 μm) (Sigma-Aldrich)
Column temperature: 40° C.
(A) 0.1% formic acid (dissolved in water)
(B) 0.1% formic acid (dissolved in acetonitrile)
Flow velocity: 0.25 mL/min
Ionization method: electrospray
Temperature: • Desolvation Line (DL) temperature: 250° C. • Heat block temperature: 400° C. • Interface temperature: 300° C.
Gas flow rate: • Nebulizer gas flow rate: 3.0 L/min • Drying gas flow rate: 10.0 L/min • Heating gas flow rate: 10.0 L/min
as §13
The rate of increase or decrease in Table M is the value of detection intensity relative to 1 that is the detection intensity in a case where the number of times of freezing and thawing is set to 2 times.

[4] = GC/MS of serum sample: number of times of freezing and thawing (Table I); design: key to Rate of increase or decrease / Rate of increase or decrease (first value, increase): detection intensity relative to 2 freeze-thaw cycles = 1; details: for Rate of increase or decrease: detection intensity relative to 1 at 2 times; for Number of times when compound is affected: detection intensity changed by 30% or more vs 2 times of freezing and thawing
Protocol: as §1, §2, §3, §4, §5, §6, §7, §8, §9, §10, §11, §12, §13
The rate of increase or decrease in Table I is the value of detection intensity relative to 1 that is the detection intensity in a case where the number of times of freezing and thawing is set to 2 times.

[5] = 10 times of freezing and thawing, detection intensity relative to 1 at 2 times
[6] = 10 times of freezing and thawing
[7] = serum sample, GC/MS, detection intensity vs 2 times of freezing and thawing
[8] = 6 times of freezing and thawing, detection intensity relative to 1 at 2 times
[9] = serum, GC/MS, freezing and thawing 4 times
[10] = detection intensity, serum, GC/MS, freezing and thawing 4 times vs 2 times
[11] = serum, GC/MS, freezing and thawing 6 times
[12] = detection intensity, serum, GC/MS, freezing and thawing 6 times vs 2 times

Row | Rate of increase or decrease ([1]; after 8 hours) | Increase or decrease ([1]; after 8 hours vs 15 minutes) | Rate of increase or decrease [4, 6] | Number of times when compound is affected ([4]; serum sample, GC/MS) [times] | Increase or decrease [4, 7] | SMILES | further results
1 | – | – | – | – | – | CC(=O)NCC(=O)O [Acetylglycine] | Rate of increase or decrease ([1]; after 4 hours): 0.68; Increase or decrease ([1]; after 4 hours vs 15 minutes): Decrease
2 | 1.95 | Increase | – | – | – | O=C(CO)[C@@H](O)[C@H](O)CO [Xylulose] | Rate of increase or decrease ([2]; after 6 hours): 2.48; Increase or decrease ([2]; after 6 hours vs 30 minutes): Increase
3 | 1.46 | Increase | – | – | – | NCCC(=O)O [3-Aminopropionic acid (β-alanine), 3-Aminopropionic acid] | –
4 | 1.44 | Increase | – | – | – | OC[C@@H](O)[C@@H](O)[C@@H](O)CO [Ribitol] | Rate of increase or decrease ([2]; after 1 hour): 2.32; Increase or decrease ([2]; after 1 hour vs 30 minutes): Increase
5 | 1.46 | Increase | – | – | – | O[C@H]1[C@H](O)[C@@H](O)[C@H](O)[C@@H](O)[C@H]1O [Inositol] | –
6 | – | – | – | – | – | N[C@@H](Cc1ccccc1)C(=O)O [Phenylalanine, phenylalanine] | Rate of increase or decrease [3, 5]: 0.57; Number of times when compound is affected [3]: 10 times; Increase or decrease [3]: Decrease
7 | – | – | 2.43 | 10 | Increase | N[C@H]1C(O)O[C@H](CO)[C@@H](O)[C@@H]1O (stereo partly drawn) [Glucosamine] | Rate of increase or decrease ([2]; after 6 hours): 1.69; Increase or decrease ([2]; after 6 hours vs 30 minutes): Increase
8 | – | – | 1.69 | 10 | Increase | CC(=NO)C(=O)O [Pyruvic oxime] | Rate of increase or decrease ([2]; after 6 hours): 1.34; Increase or decrease ([2]; after 6 hours vs 30 minutes): Increase
9 | 2.00 | Increase | – | – | – | O=C(O)CCC(O)C(=O)O (stereo not drawn) [2-Hydroxyglutaric acid] | Rate of increase or decrease ([2]; after 1 hour): 1.31; Increase or decrease ([2]; after 1 hour vs 30 minutes): Increase
10 | 0.69 | Decrease | – | – | – | CCCCCCCCCC(=O)O [Decanoic acid] | –
11 | 0.62 | Decrease | – | – | – | OC[C@@H](O)[C@H](O)[C@@H](O)CO [Xylitol] | –
12 | – | – | – | – | – | C[C@@H](O)[C@H](N)C(=O)O [Threonine, threonine] | Rate of increase or decrease ([3]; 6 times of freezing and thawing, relative to 1 at 2 times, different from individual to individual, first value (increase)): 1.31; Rate of increase or decrease ([3]; 6 times of freezing and thawing, relative to 1 at 2 times, different from individual to individual, second value (decrease)): 0.69; Number of times when compound is affected [3]: 6 times; Increase or decrease [3]: Different from individual
13 | – | – | – | – | – | O=C(O)c1ccc(CO)o1 [5-Hydroxymethyl-2-furancarboxylic acid] | Rate of increase or decrease ([2]; after 1 hour): 1.71; Increase or decrease ([2]; after 1 hour vs 30 minutes): Increase
14 | – | – | – | – | – | N[C@@H](Cc1ccc(O)cc1)C(=O)O [Tyrosine, tyrosine] | Rate of increase or decrease [3, 8]: 0.60; Number of times when compound is affected [3]: 6 times; Increase or decrease [3]: Decrease
15 | – | – | – | – | – | O=C(O)CCO [3-Hydroxypropionic acid] | Increase or decrease ([2]; after 6 hours vs 30 minutes): Different from individual; Rate of increase or decrease (second value, decrease) ([2]; different from individual to individual, individuals with decrease, relative to 1 at 30 minutes, after 6 hours): 0.65; Rate of increase or decrease (first value, increase) ([2]; different from individual to individual, individuals with increase, relative to 1 at 30 minutes, after 6 hours): 1.91; Rate of increase or decrease [4, 9]: 0.55; Increase or decrease [4, 10]: Decrease
16 | 0.66 | Decrease | 0.69 | 10 | Decrease | OC[C@@H](O)[C@@H](O)CO [Meso-erythritol] | –

Row | Rate of increase or decrease ([1]; after 8 hours) | Increase or decrease ([1]; after 8 hours vs 15 minutes) | Rate of increase or decrease [4, 6] | Number of times when compound is affected ([4]; serum sample, GC/MS) [times] | Increase or decrease [4, 7] | SMILES | further results
17 | – | – | 2.17 | 10 | Increase | CC(=O)N[C@@H](CCC(N)=O)C(=O)O [N-acetylglutamine] | Rate of increase or decrease ([2]; after 6 hours): 1.58; Increase or decrease ([2]; after 6 hours vs 30 minutes): Increase
18 | – | – | – | – | – | CC(C)(O)CC(=O)O [3-Hydroxyisovaleric acid] | Rate of increase or decrease ([1]; after 12 hours): 1.35; Increase or decrease ([1]; after 12 hours vs 15 minutes): Increase
19 | – | – | – | – | – | O=C[C@H](O)[C@H](O)[C@H](O)[C@H](O)CO [Allose] | Rate of increase or decrease [4, 11]: 0.62; Increase or decrease [4, 12]: Decrease
20 | – | – | – | – | – | Nc1c(O)cccc1C(=O)O [3-Hydroxyanthranyl acid] | Rate of increase or decrease ([1]; after 4 hours): 0.59; Increase or decrease ([1]; after 4 hours vs 15 minutes): Decrease; Rate of increase or decrease [4, 11]: 1.34; Increase or decrease [4, 12]: Increase
21 | 1.54 | Increase | 0.61 | 10 | Decrease | OC[C@@H](O)[C@@H](O)[C@H](O)[C@@H](O)CO [Sorbitol] | –
22 | – | – | 0.67 | 10 | Decrease | CCCCCCCCC(=O)O [Pelargonic acid, pelargonic acid] | –
23 | – | – | – | – | – | CC(C)[C@H](N)C(=O)O [Valine, valine] | Rate of increase or decrease [3, 5]: 0.56; Number of times when compound is affected [3]: 10 times; Increase or decrease [3]: Decrease
24 | 0.67 | Decrease | – | – | – | CC(C)C(=O)C(=O)O [2-Ketoisovaleric acid] | –
25 | – | – | – | – | – | O=C(O)[C@H](O)[C@@H](O)[C@H](O)[C@H](O)CO [Gluconic acid] | Increase or decrease ([1]; after 12 hours vs 15 minutes): Increase
26 | – | – | – | – | – | CSCC[C@H](N)C(=O)O [Methionine, methionine] | Rate of increase or decrease [3, 8]: 0.69; Number of times when compound is affected [3]: 6 times; Increase or decrease [3]: Decrease
27 | – | – | – | 10 | Increase | CNCC(=O)O [Sarcosine, sarcosine] | –
28 | – | – | 1.35 | 10 | Increase | CCCCCCCCCCCCCCCCC(=O)O [Margaric acid, margaric acid] | –
29 | – | – | 2.06 | 10 | Increase | O=C(O)C(=O)Cc1ccccc1 [Phenylpyruvic acid] | Rate of increase or decrease ([2]; after 6 hours): 1.45; Increase or decrease ([2]; after 6 hours vs 30 minutes): Increase
30 | – | – | 0.61 | 10 | Decrease | Cc1ncc(CO)c(CN)c1O [Pyridoxamine] | Rate of increase or decrease ([1]; after 4 hours): 1.52; Increase or decrease ([1]; after 4 hours vs 15 minutes): Increase
31 | – | – | – | – | – | CCCCCCCC/C=C\CCCCCCCC(N)=O [Oleamide] | Rate of increase or decrease [4, 9]: 2.08; Increase or decrease [4, 10]: Increase

Row | SMILES | Rate of increase or decrease ([1]; after 8 hours) | Increase or decrease ([1]; after 8 hours vs 15 minutes) | Rate of increase or decrease [4, 6] | Number of times when compound is affected ([4]; serum sample, GC/MS) [times] | Increase or decrease [4, 7] | further results
32 | O=C(O)CCCC(=O)O [Glutaric acid] | 1.39 | Increase | – | – | – | –
33 | NO [Hydroxylamine] | – | – | 2.31 | 10 | Increase | Rate of increase or decrease ([2]; after 6 hours): 1.87; Increase or decrease ([2]; after 6 hours vs 30 minutes): Increase
